Measurements as given in patent US7091185B2, “Periodic antimicrobial peptides” (Dow Global Technologies Inc., priority 2003, dated 2006).
Where no end group is shown, it is not given here.

B1: KFAK KFAK KFAK KFAK KFAK KFAK KFAK KFAK KFAK KFAK KFAK KFAK KFAK KFAK KFAK KFAK KFAK (peptide)
chain: KFAKKFAKKFAKKFAKKFAKKFAKKFAKKFAKKFAKKFAKKFAKKFAKKFAKKFAKKFAKKFAKKFAK
modifications: Periodic Peptide
B2: FKA FKA FKA FKA FKA FKA FKA FKA FKA FKA FKA FKA FKA FKA FKA FKA FKA FKA FKA FKA FKA (peptide)
chain: FKAFKAFKAFKAFKAFKAFKAFKAFKAFKAFKAFKAFKAFKAFKAFKAFKAFKAFKAFKAFKA
modifications: Periodic Peptide
B3: KFK KFK KFK KFK KFK KFK KFK KFK KFK KFK KFK KFK KFK KFK KFK KFK KFK KFK KFK KFK KFK (peptide)
chain: KFKKFKKFKKFKKFKKFKKFKKFKKFKKFKKFKKFKKFKKFKKFKKFKKFKKFKKFKKFKKFK
modifications: Periodic Peptide

Tests used:
[1] = test system: P. aeruginosa ATCC 15442; experiment: HMARQ biocidal kill activity; format: cell-based; settings: P. aeruginosa ATCC 15442 (gram−)
Experimental: (§1) Biocide efficacy protocols were improved by reducing sample size, organizing the test material into an array format, implementing most probable number (MPN) quantitation and using multi-channel liquid handling equipment. We call the new method “high-throughput microanalysis and rapid quantitation” or “HMARQ.” HMARQ is directly applicable to current industrial efficacy tests such as multi-cycle preservation challenge or time course disinfection tests.
(§2) HMARQ is performed in a high throughput plate, such as 96-well microtiter plates. Typical sample volumes have been reduced down to 200 to 300 μL, but can be reduced further if desired. In these samples, no more than 10% of the total volume will be composed of the biocide and organism solution, and all non-matrix additions are normalized for all samples.
(§3) The sample matrix is first inoculated with the desired concentration of microorganisms. Inoculated sample matrix is then added to the 96-well assay block containing the biocide(s) under study. Each sample block contains biocide treated samples and untreated control samples (lacking biocide). Once the samples are prepared, the entire block of samples is mixed by vortexing until each sample is homogenous. In general, the study starts once mixing is complete, and samples are removed as required for the analysis. When Kill Time testing (rate of biocide activity) is performed, the microorganisms are added after biocide addition to the samples, allowing for rapid mixing and analysis.
(§4) Bacterial concentration (CFU/mL) is determined using the most probable number method (MPN). The contaminated solution is serially diluted until the “no growth” endpoint is reached. The endpoint represents the MPN and is expressed in units of the bacterial concentration. A serial 1:10 dilution will yield a bacterial concentration resolution of 1 log and the log reduction is determined by comparing the concentration of organisms in a treated sample to the concentration of organisms in untreated samples. For example, if a sample requires four 1:10 dilutions before bacterial growth is lost then the MPN for bacterial concentration in the sample is less than or equal to 1×10^4 CFU/mL (1E4). […] This method of enumeration is generally applicable to all non-filamentous microorganisms.
(§5) Media included Tryptic Soy Broth (TSB) for bacteria and Sabouraud Dextrose Broth (SDB) for fungi. These are available commercially and prepared according to the manufacturers instructions. Indicator medium was TSB/R for bacteria and SDB/R for fungi. These were made by addition of 50 μM filter sterilized Resazurin to the sterilized and cooled medium. Tryptic Soy agar plates (TSA) and SDA slants were used to provide inoculant for bacterial and fungal cultures. The indicator dye appeared pink or white when bacterial growth was present.
(§6) Using the HMARQ test described above, periodic peptides were generated and tested for Kill Activity. In this experiment, a broader range of peptidezs were tested for activity. Units are expressed as ppm (μg/mL) needed for 3.5 log kill at 15 min or 24 hour and the results are shown below.

[2] = test system: Staph. aureus ATCC 6538; experiment: HMARQ biocidal kill activity; format: cell-based; settings: Staph. aureus ATCC 6538 (gram+)
Experimental: as §1, §2, §3, §4, §5, §6

[3] = test system: E. coli ATCC 2592; settings: ATCC 2592
Experimental: (§7) The bacteria tested were P. aeruginosa American Type Culture Collection Number (ATCC) 10145, E. coli ATCC 2592, and S. aureus (methicillin reseistant) ATTC 33591.
(§8) All experiments were compared to bacterial growth under optimal growth conditions (37° C., pH 7.0, absence of additional salt, growth media—referred to as standard growth conditions). In each plate, no growth control (media alone), positive growth control (bacteria with no test sample), positive antimicrobial controls (agents with known antimicrobial activity) and test compounds were tested.
(§9) The plates were incubated overnight, and the relative percent growth determined by optical density at 620 nm (OD620) using a […] […] PLUS™. […] All samples were tested in duplicate and each assay was repeated at least twice. […] IC50 and MIC are reported in μg/ml.

[4] = test system: P. aeruginosa ATCC 10145; settings: ATCC 10145
Experimental: as §7, §8, §9

[5] = test system: S. aureus (methicillin resistant) ATCC 33591; settings: ATCC 33591
Experimental: as §7, §8, §9

[6] = test system: C. albicans 10231; format: cell-based; settings: 10231
Experimental: (§10) The MIC and IC50 values were determined by a broth microdilution method according to guidelines of the National Committee for Clinical Laboratory Standard as follows: In 96-well tissue culture plates, a fixed volume of bacterial suspension in 2× broth (as defined below) was added to the mixtures or individual compounds dispensed at concentrations varying from 1,000 to 1 μg/ml derived from serial two-fold dilutions in sterile water. The bacteria tested were P. aeruginosa American Type Culture Collection Number (ATCC) 10145, E. coli ATCC 2592, and S. aureus (methicillin reseistant) ATTC 33591.
(§11) The plates were incubated overnight, and the relative percent growth determined by optical density at 620 nm (OD620) using a TITERTEK MULTISKAN PLUS™. […] IC50 values were calculated using a sigmoidal curve fitting software program (GRAPHPAD,™ ISI Software,™ San Diego, Calif.). All samples were tested in duplicate and each assay was repeated at least twice. In the following table, KFAK is the repeat unit and multimers of KFAK were tested. IC50 and MIC are reported in μg/ml.
(§12) Because the antibacterial activity of the periodic peptides was so promising, further experiments were performed to determine if the periodic peptides also had antifungal activity. The experimental design was similar to that above, with accommodation made for fungal growth requirements, including the use of Sabouraud Dextrose Broth (SDB) and Sabouraud Dextrose Agar (SDA) slants.

[7] = test system: Cr. Neoformans 32045; format: cell-based
Experimental: as §10, §11, §12

[8] = Red blood cell toxicity; format: cell-based; settings: red blood cells (RBC); RBCs; concentration required for 50% toxicity; read-out: TX50
[9] = test system: Red blood cells (RBC); experiment: Red blood cell toxicity; format: cell-based

| Molecule | ppm needed for 3.5 log kill at 15 min [1] [ppm] | ppm needed for 3.5 log kill at 24 hr [1] [ppm] | ppm needed for 3.5 log kill at 15 min [2] [ppm] | ppm needed for 3.5 log kill at 24 hr [2] [ppm] | also measured |
| --- | --- | --- | --- | --- | --- |
| KTK KTK KTK KTK KTK KTK KTK (KTKKTKKTKKTKKTKKTKKTK; Periodic Peptide) [KTK(7)] | 31 | 31 | 250 | 8 |  |
| LK LK LK LK LK LK LK LK LK LK LK LK LK LK LK LK LK LK LK LK LK LK LK LK (LKLKLKLKLKLKLKLKLKLKLKLKLKLKLKLKLKLKLKLKLKLKLKLK; Periodic Peptide) [LK(24)] | 16 | 63 | >500 | >500 |  |
| KGK KGK KGK KGK KGK KGK KGK KGK KGK KGK KGK (KGKKGKKGKKGKKGKKGKKGKKGKKGKKGKKGK; Periodic Peptide) [KGK(11)] | 8 | 8 | >500 | 8 |  |
| LK LK LK LK LK (LKLKLKLKLK; Periodic Peptide) [LK(5)] | 62 | 62 | >500 | 31 |  |
| FKLRAKIKVRLRAKIKL [D4E1, FKLRAKIKVRLRAKIKL, reference compound] |  |  |  |  | IC50 [3]: 3.3 µg/mL; MIC [3]: 8 to 16 µg/mL; IC50 [4]: 6.2 µg/mL; MIC [4]: 8 to 16 µg/mL; IC50 [5]: 6.3 µg/mL; MIC [5]: 32 to 62 µg/mL; IC50 [6]: 70.6 µg/mL; MIC [6]: 80 to 125 µg/mL; IC50 [7]: 1.8 µg/mL; MIC [7]: 8 to 16 µg/mL; HC50 at 24 h [8]: 134 µg/mL; % kill at 250 μg/ml [9]: 77.2% |
| FKA FKA FKA FKA FKA FKA FKA FKA FKA FKA FKA FKA FKA FKA FKA FKA FKA (FKAFKAFKAFKAFKAFKAFKAFKAFKAFKAFKAFKAFKAFKAFKAFKAFKA; Periodic Peptide) [FKA(17)] | 16 | 16 | 4 | 8 |  |
| KFK KFK KFK KFK KFK KFK KFK KFK KFK KFK KFK KFK (KFKKFKKFKKFKKFKKFKKFKKFKKFKKFKKFKKFK; Periodic Peptide) [KFK(12)] | 4 | 8 | >500 | 250 |  |
| KFAKKAAKKFAKKAAK [PBF16c, KFAKKAAKKFAKKAAK, reference compound] |  |  |  |  | IC50 [4]: >250 µg/mL; MIC [4]: >250 µg/mL |
| H-KFAKKFAKKFAKKAAK-OH [PBF16a, KFAKKFAKKFAKKAAK, reference compound] |  |  |  |  | IC50 [4]: >250 µg/mL; MIC [4]: >250 µg/mL |
| KFK KFK KFK KFK KFK KFK KFK KFK KFK KFK KFK KFK KFK KFK KFK KFK (KFKKFKKFKKFKKFKKFKKFKKFKKFKKFKKFKKFKKFKKFKKFKKFK; Periodic Peptide) [KFK(16)] | 16 | 31 | >500 | 16 |  |
| H-KFAKKFAKKAAKKAAK-OH [PBF16b, KFAKKFAKKAAKKAAK, reference compound] |  |  |  |  | IC50 [4]: >250 µg/mL; MIC [4]: >250 µg/mL |
| LK LK LK LK LK LK LK LK LK LK LK LK LK LK LK LK LK LK (LKLKLKLKLKLKLKLKLKLKLKLKLKLKLKLKLKLK; Periodic Peptide) [LK(18)] | 16 | 31 | 8 | 16 |  |
| KGK KGK KGK KGK KGK KGK KGK KGK KGK KGK KGK KGK KGK KGK KGK (KGKKGKKGKKGKKGKKGKKGKKGKKGKKGKKGKKGKKGKKGKKGK; Periodic Peptide) [KGK(15)] | 4 | 16 | 125 | 62 |  |
| B1 | 16 | 250 | 250 | 500 |  |
| B2 | 8 | 16 | 4 | 125 |  |
| B3 | 31 | 63 | >500 | 250 |  |
